Measurements taken from patent US20060067942A1, “Pharmaceutical agent comprising amino acids, peptides, proteins and/or fractions and fragments thereof and the use of same in the prophylaxis and treatment of immune system deficiency in humans and animals” (priority 2004, published 2006).
Where “and” joins values, the source holds several entries; their conditions need not be identical. Identical values can stand only once.

Legend:
T-lymphocytes = experiment: E-rosette test in immunosuppressed guinea pigs; format: in vivo, guinea pig
Text: Guinea pig's T-lymphocytes bind rabbits erythrocytes on their surface, this ability is used to observe the dynamics of changes in the number of T-lymphocytes. The number of the human T-lymphocytes is one of the parameters of evaluation of cellular immunity in the clinical immunology. […] The first step was to determine the number of T-lymphocytes by using the E-rosette assay in the 8 Guinea pigs in the weight range 260-310 g. The second step was to decrease the number of T-lymphocytes. This was done using the immunosuppressant Azathioprin. The application of this is per os for 7 of the guinea pigs. The 8th guinea pig will be used as a control without application of the immunosuppressant. The second determination of the T-lymphocytes followed 7 days after the application of the immunosuppressant. […] One of the suppressed guinea pigs was used as a control suppressed animal.
The level of E-rosettes was determined on the first day from the blood of 12 experimental guinea pigs. On the second day, 8 animals (group A) were treated i.p. with oxoplatin as an anti-tumor agent and 3 animals (group B) were treated with double the dose of oxoplatin. The final guinea pig was used as a control. The level of E-rosettes was determined 5 days later.
The level of the E-rosettes in 3 guinea pigs with low values of E-rosettes was determined again at day 35.
The level of E-rosettes in 9 experimental guinea pigs was determined on the 1st day. On the second day 8 animals were injected with Campto and one was without application. The level of E-rosettes in all guinea pigs was determined on the 7th day of experiment. […] On day 22 of the experiment one guinea pig had E-rosette production determined. The level of E-rosettes was then determined again in all animals on day 29.
The level of E-rosettes in 9 experimental guinea pigs was determined on the first day. On the second day, 8 guinea pigs were injected with Taxol. The level of E-rosettes was determined again on the 7th day of experimentation. […] The level of E-rosettes in all guinea pigs was determined on the 29th day.
The level of the E-rosettes in 10 experimental guinea pigs was determined on the first day. On the second day, 9 guinea pigs were injected with Eloxatin. The level of E-rosettes were determined on the 7th day of experimentation. […] The final level of E-rosettes was then determined on the 30th day of experimentation.

CD4+ T lymphocytes = experiment: Intracellular staining for IFNg and CD69 expression on CD4+ lymphocytes in whole blood; format: cell-based, human; details: for % CD69+ cells / % CD69+/IFNg+ cells: CD4+ lymphocytes, 0.5 ml blood + 50 μg preparation or 10 μg PHA
Method: Briefly, whole peripheral blood was collected into sodium heparin. […] Addition of 10 μl Brefeldin A (Sigma, 10 μg/ml) to all tubes. Incubation for new 4 hours at 37° C., 5% CO2. Brefeldin A is an agent which arrest produced cytokine intracellular. Surface and intracellular staining for T-lymphocytes was performed according to the manufacturer rules with monoclonal antibodies against CD3, CD4, CD69 and IFNg from FastImmune CD4 Intracellular Cytokine Detection kit (BD). Red blood cells were lysed with FACS Lysing solution for 10 min. at room temperature. Permeabilization of lymphocytes was achieved using FACS Permeabilizing solution (BD) for 10 min. The activation and intracellular cytokine expression was evaluated by the staining with CD4/CD69/IGNg monoclonal antibodies

human PBMC = experiment: Lymphocyte proliferation in vitro (Stimulation index, Thymidine uptake); format: cell-based; details: PHA positive control
Method: T-lymphocyte activation can be assessed directly by: • a) De novo expression or increase of activation markers such as CD69 on T lymphocytes (CD69+/CD4+ cells) after 4 hours activation • b) Measuring blastogenesis and/or proliferation of cells to phytomitogens (such as Phytohemagglutinin, PHA), common antigens or other substances evaluated 72 hours after activation • c) Antigen-induced release of cytokines (in this case the preparation-induced intra-cellular expression of IFNg in CD4+ T lymphocytes) Methods
Heparinized venous blood from 5 healthy volunteers (women, aged 35-52 years) has been used for the performance of the following investigations:
In vitro proliferation of PBMC from 5 healthy individuals is presented as Stimulation index in Table 2. The PHA-induced proliferation, used here as a positive control, verified good culturing conditions, as it is shown mean proliferation index 184.5±142.8 at 72 hours. As it is expected, at 6 day SI of PHA stimulation is dropping (it is a mitogen), but the cell cultures were intact.
That is why we tested it's stimulation activity at 3 days and 6 days activation period.

For `N.N.[Cl-].[Cl-].[OH-].[OH-].[Pt+4]` [oxoplatin], the “decrease of production of E-rosettes after application of oxoplatin” value (T-lymphocytes; Experiment 1, i.p., determined 5 days later) was 27.4%.
With `CCc1c2c(nc3ccc(OC(=O)N4CCC(N5CCCCC5)CC4)cc13)-c1cc3c(c(=O)n1C2)COC(=O)[C@]3(O)CC` [Campto] the “decrease of production of E-rosettes after application of Campto” value (T-lymphocytes; Experiment 2, injected day 2, determined 7th day) was 22.7%.
For Phytohemagglutinin [PHA], the “% CD69+ cells” value (CD4+ T lymphocytes; Mean of 6 donors) was 83.54%, the “% CD69+/IFNg+ cells” value (CD4+ T lymphocytes; Mean of 6 donors) was 4.97±5.75% and 4.97% and the “PHA induced % CD69+ cells” value (CD4+ T lymphocytes; after 4 hours stimulation, healthy individuals) was “over 80%”. The “% CD69+ cells” value (CD4+ T lymphocytes; donor five) was 78.46%, the “% CD69+/IFNg+ cells” value (CD4+ T lymphocytes; donor five) was 2.45% and the “% CD69+ cells” value (CD4+ T lymphocytes; donor four) was 87.87%. For the same molecule, the “% CD69+/IFNg+ cells” value (CD4+ T lymphocytes; donor four) was 2.87%, the “% CD69+ cells” value (CD4+ T lymphocytes; donor one) was 89.58% and the “% CD69+/IFNg+ cells” value (CD4+ T lymphocytes; donor one) was 0.49%. The “% CD69+ cells” value (CD4+ T lymphocytes; donor six) was 90.03%, the “% CD69+/IFNg+ cells” value (CD4+ T lymphocytes; donor six) was 16.42% and the “% CD69+ cells” value (CD4+ T lymphocytes; donor three) was 86.39%. For the same molecule, the “% CD69+/IFNg+ cells” value (CD4+ T lymphocytes; donor three) was 4.39%, the “% CD69+ cells” value (CD4+ T lymphocytes; donor two) was 68.91% and the “% CD69+/IFNg+ cells” value (CD4+ T lymphocytes; donor two) was 3.18%. For the same molecule, the “Stimulation index (PBMC proliferation)” value (human PBMC; Mean of donors, 3 days (72 hours)) was 184.5±142.8, the “Stimulation index (PBMC proliferation)” value (human PBMC; Mean of donors, 3 days (72 hours), listed as PHA(+)) was 184.33 and the “Stimulation index (PBMC proliferation)” value (human PBMC; Mean of donors, 6 days) was 51.97. For the same molecule, the “Stimulation index (PBMC proliferation)” value (human PBMC; donor four, 3 days) was 77.3, the “Stimulation index (PBMC proliferation)” value (human PBMC; donor four, 6 days) was 61.09 and the “Stimulation index (PBMC proliferation)” value (human PBMC; donor one, 3 days) was 417. For the same molecule, the “Stimulation index (PBMC proliferation)” value (human PBMC; donor one, 6 days) was 33, the “Stimulation index (PBMC proliferation)” value (human PBMC; donor six, 3 days) was 114.65 and the “Stimulation index (PBMC proliferation)” value (human PBMC; donor six, 6 days) was 25.11. For the same molecule, the “Stimulation index (PBMC proliferation)” value (human PBMC; donor three, 3 days) was 87.38, the “Stimulation index (PBMC proliferation)” value (human PBMC; donor three, 6 days) was 119.9 and the “Stimulation index (PBMC proliferation)” value (human PBMC; donor two, 3 days) was 225.3. The “Stimulation index (PBMC proliferation)” value (human PBMC; donor two, 6 days) was 20.74.
For `O=C1[O][Pt]2([NH][C@@H]3CCCC[C@H]3[NH]2)[O]C1=O` [Eloxatin], the “decrease of formation of E-rosettes after application of Eloxatin” value (T-lymphocytes; Experiment 4, injected day 2, determined 7th day) was 22%.
For `CC(=O)O[C@H]1C(=O)[C@@]2(C)[C@H]([C@H](OC(=O)c3ccccc3)[C@]3(O)C[C@H](OC(=O)[C@H](O)[C@@H](NC(=O)c4ccccc4)c4ccccc4)C(C)=C1C3(C)C)[C@]1(OC(C)=O)CO[C@@H]1C[C@@H]2O` [Taxol], the “decrease of production of E-rosettes after application of Taxol” value (T-lymphocytes; Experiment 3, injected day 2, determined 7th day) was 16%.
